Starred links: 1 amine or outer side, 2 acyl side, 3 side chain; linkers in the order of their positions; H or OH if unused. Positions of bridges follow the written chain, without caps; N, C: chain ends. Non-standard residues stand in square brackets, D forms with d. Residues, ends and D or L forms follow the SMILES beside them. *: point of attachment. X1 = O=C([C@@H]1CCNc2c(N[*:1])cc3cc(O)c(O)cc3[n+]21)[*:2]; X4 = O=C([C@@H]1CCN=C2C(N[*:1])=Cc3cc(O)c(O)cc3N21)[*:2]; dOrn(N5-OH,N5-CHO) = N[C@H](CCCN(O)C=O)C(=O)O; Butanoyl(2-oxo,4-COOH) = O=C(O)CCC(=O)C(=O)*; X5 = O=CN(O)CCC[C@H](N[*:1])C(=O)[*:2]; d(aThr) = C[C@@H](O)[C@@H](N)C(=O)O; Suc = O=C(CCC(=O)[*:2])[*:1]; X2 = O=C1[C@@H](N*)CCCN1[O-]; Orn = NCCC[C@H](N)C(=O)O
Experiments:
Assay type in all cases: binding
[1] = target: negative control lipocalin SEQ ID NO: 64 (Homo sapiens, UniProt P80188, C107S/Q48H); test: SPR (Biacore T200), negative control SEQ ID NO: 64; conditions: 1200 nM
negative control lipocalin SEQ ID NO: 64, sequence (P80188 21-198 Q48H/C107S): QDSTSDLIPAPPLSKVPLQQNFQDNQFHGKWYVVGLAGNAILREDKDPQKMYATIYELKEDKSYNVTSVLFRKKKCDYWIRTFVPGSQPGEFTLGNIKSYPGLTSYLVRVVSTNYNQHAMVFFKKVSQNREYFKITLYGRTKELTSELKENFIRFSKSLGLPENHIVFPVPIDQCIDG
Description: (§1) In a Surface Plasmon Resonance (SPR) based assay a Biacore T200 instrument (GE Healthcare) was used to measure the binding affinity of muteins to pyoverdine I succinyl, -succinamid, -α-ketoglutaryl with complexed iron ion or to pyoverdine II succinyl, -succinamid, -α-ketoglutaryl with complexed iron ion or to pyoverdine III succinyl, -succinamid, -α-ketoglutaryl with complexed iron ion. Muteins selected for binding to pyoverdines and negative control (SEQ ID NO: 64) were biotinylated for 2 h at room temperature applying an appropriate excess of EZ-Link NHS-PEG4-Biotin (Thermo, […]) followed by separation of non-reacted Biotin using a Zeba Spin Desalting Plate (Thermo, […]) according to the manufactures instructions.
(§2) In the SPR affinity assay, biotinylated muteins and negative control were captured on a sensor chip CAP using the Biotin CAPture Kit (GE Healthcare): Sensor Chip CAP is pre-immobilized with an ssDNA oligo. Undiluted Biotin CAPture Reagent (streptavidin conjugated with the complementary ss-DNA oligo) was applied at a flow rate of 2 μl/min for 300 s. Subsequently, 1 μg/ml to 100 μg/mL of biotinylated muteins or negative control were applied for 300 s at a flow rate of 5 μl/min. The reference channel was loaded with Biotin CAPture Reagent only.
Applying a flow rate of 30 μl/min, a single cycle or multi cycle kinetics approach was used with a sample contact time of 120-180 s and a dissociation time of 900-2400 s. […] After ligand immobilization, for analysis using single cycle kinetics all 4-5 concentrations of Pvd were applied consecutively in ascending order before the dissociation was monitored. For analysis using multi cycle kinetics 4 dilutions of Pvd were applied, each followed a dissociation phase. All measurements were performed at 25° C. […] Data were evaluated with Biacore T200 Evaluation software (V 1.0). Double referencing was used. A 1:1 Binding model was used to fit the raw data. […]

[2] = target: T1, human lipocalin 2 (hNGAL) mutein SEQ ID NO: 35 (Homo sapiens, UniProt P80188, A60T/C107S/D97H/K145I/K154W/K93R/L123T/L56V/L90R/N85Q/Q48H/Q69G/R101D/R92I/S147R/S88D/T74A/W99Y/Y126Q/Y152I/Y72N); test: SPR (Biacore T200), mutein SEQ ID NO: 35; conditions: 25° C.
T1 construct: made in house; host or cells: E. coli
T1 sequence (P80188 21-198 with the stated changes): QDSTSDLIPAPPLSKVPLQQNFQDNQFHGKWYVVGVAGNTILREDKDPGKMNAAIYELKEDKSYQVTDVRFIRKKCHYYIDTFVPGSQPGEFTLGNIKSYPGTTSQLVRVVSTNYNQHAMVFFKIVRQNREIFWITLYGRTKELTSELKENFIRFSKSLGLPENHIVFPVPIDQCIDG
Description: (§4) In a Surface Plasmon Resonance (SPR) based assay a Biacore T200 instrument (GE Healthcare) was used to measure the binding affinity of muteins to pyoverdine I succinyl, -succinamid, -α-ketoglutaryl with complexed iron ion or to pyoverdine II succinyl, -succinamid, -α-ketoglutaryl with complexed iron ion or to pyoverdine III succinyl, -succinamid, -α-ketoglutaryl with complexed iron ion. Muteins selected for binding to pyoverdines and negative control (SEQ ID NO: 64) were biotinylated for 2 h at room temperature applying an appropriate excess of EZ-Link NHS-PEG4-Biotin (Thermo, Cat#21329) followed by separation of non-reacted Biotin using a Zeba Spin Desalting Plate (Thermo, Cat#21329) according to the manufactures instructions.

[3] = target: T2, human lipocalin 2 (hNGAL) mutein SEQ ID NO: 33 (Homo sapiens, UniProt P80188, A60E/C107S/D97N/E64D/I61V/K145N/K154W/K93N/L123V/L56V/L90R/N116K/N85Q/Q48H/Q69G/R101E/R92H/S147K/S88E/W99F/Y120N/Y126M/Y152G/Y72P); test: SPR (Biacore T200), mutein SEQ ID NO: 33; conditions: 25° C.
T2 construct: made in house; host or cells: E. coli
T2 sequence (P80188 21-198 with the stated changes): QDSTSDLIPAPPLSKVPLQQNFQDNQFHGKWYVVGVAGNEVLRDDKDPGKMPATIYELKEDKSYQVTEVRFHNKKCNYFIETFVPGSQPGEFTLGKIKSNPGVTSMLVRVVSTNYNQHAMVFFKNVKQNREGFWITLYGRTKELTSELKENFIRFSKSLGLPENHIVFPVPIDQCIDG
Description: as §4

[4] = target: T3, human lipocalin 2 (hNGAL) mutein SEQ ID NO: 32 (Homo sapiens, UniProt P80188, A60E/C107S/D97N/E64D/I61V/K145N/K154W/K93N/L123V/L56V/L90R/N116K/N85D/Q48H/Q69G/R101E/R92H/S147K/S88E/W99F/Y120N/Y126M/Y152G/Y72P); test: SPR (Biacore T200), mutein SEQ ID NO: 32; conditions: 25° C.
T3 construct: made in house; host or cells: E. coli
T3 sequence (P80188 21-198 with the stated changes): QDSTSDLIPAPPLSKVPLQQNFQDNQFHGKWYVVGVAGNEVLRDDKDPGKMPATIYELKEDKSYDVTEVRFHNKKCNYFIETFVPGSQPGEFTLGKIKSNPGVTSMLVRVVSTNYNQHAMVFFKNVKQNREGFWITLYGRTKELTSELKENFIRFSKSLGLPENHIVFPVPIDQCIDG
Description: as §4

[5] = target: T4, human lipocalin 2 (hNGAL) mutein SEQ ID NO: 44 (Homo sapiens, UniProt P80188, A60L/C107S/D97K/I61T/K154W/K93R/L123Q/L56E/L90R/N116V/Q48H/Q69M/R101V/S147V/S88E/W99D/Y120D/Y126E/Y72M); test: SPR (Biacore T200), mutein SEQ ID NO: 44; conditions: 25° C.
T4 construct: made in house; host or cells: E. coli
T4 sequence (P80188 21-198 with the stated changes): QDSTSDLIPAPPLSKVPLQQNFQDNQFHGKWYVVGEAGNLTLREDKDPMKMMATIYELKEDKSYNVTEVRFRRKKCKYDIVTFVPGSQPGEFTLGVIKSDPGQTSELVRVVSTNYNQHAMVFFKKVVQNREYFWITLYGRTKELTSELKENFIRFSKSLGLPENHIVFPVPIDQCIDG
Description: as §1, §2
(§3) Applying a flow rate of 30 μl/min, a single cycle or multi cycle kinetics approach was used with a sample contact time of 120-180 s and a dissociation time of 900-2400 s. […] After ligand immobilization, for analysis using single cycle kinetics all 4-5 concentrations of Pvd were applied consecutively in ascending order before the dissociation was monitored. For analysis using multi cycle kinetics 4 dilutions of Pvd were applied, each followed a dissociation phase. All measurements were performed at 25° C. […] Data were evaluated with Biacore T200 Evaluation software (V 1.0). Double referencing was used. A 1:1 Binding model was used to fit the raw data.

[6] = target: T5, human lipocalin 2 (hNGAL) mutein SEQ ID NO: 43 (Homo sapiens, UniProt P80188, A60L/C107S/D97K/I61A/K154W/K93Q/L123Q/L56E/L90R/N116L/Q48H/Q69M/R101V/S147V/S88E/W99D/Y120D/Y126E/Y72M); test: SPR (Biacore T200), mutein SEQ ID NO: 43; conditions: 25° C.
T5 construct: made in house; host or cells: E. coli
T5 sequence (P80188 21-198 with the stated changes): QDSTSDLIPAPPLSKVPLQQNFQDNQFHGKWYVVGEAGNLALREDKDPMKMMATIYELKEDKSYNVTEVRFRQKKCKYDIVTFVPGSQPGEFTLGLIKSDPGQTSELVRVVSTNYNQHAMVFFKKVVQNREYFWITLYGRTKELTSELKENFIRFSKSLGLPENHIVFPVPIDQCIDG
Description: as §1, §2, §3

[7] = target: T6, human lipocalin 2 (hNGAL) mutein SEQ ID NO: 47 (Homo sapiens, UniProt P80188, A60L/C107S/D97K/I61A/K154W/K93H/L123Q/L56E/L62R/L90R/N116L/Q48H/Q69M/R101V/S125P/S147V/S88E/W99D/Y120D/Y126E/Y72M); test: SPR (Biacore T200), mutein SEQ ID NO: 47; conditions: 25° C.
T6 construct: made in house; host or cells: E. coli
T6 sequence (P80188 21-198 with the stated changes): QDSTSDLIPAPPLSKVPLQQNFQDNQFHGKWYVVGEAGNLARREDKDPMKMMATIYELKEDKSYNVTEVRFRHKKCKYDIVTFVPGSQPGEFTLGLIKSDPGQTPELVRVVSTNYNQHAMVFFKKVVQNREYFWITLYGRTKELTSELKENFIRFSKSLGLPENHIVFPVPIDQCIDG
Description: as §1, §2, §3

[8] = target: T7, human lipocalin 2 (hNGAL) mutein SEQ ID NO: 45 (Homo sapiens, UniProt P80188, A60L/C107S/D97K/I61A/K154W/K93H/L123Q/L56E/L90R/N116L/Q48H/Q69M/R101V/S147V/S88E/W99D/Y120D/Y126E/Y72M); test: SPR (Biacore T200), mutein SEQ ID NO: 45; conditions: 25° C.
T7 construct: made in house; host or cells: E. coli
T7 sequence (P80188 21-198 with the stated changes): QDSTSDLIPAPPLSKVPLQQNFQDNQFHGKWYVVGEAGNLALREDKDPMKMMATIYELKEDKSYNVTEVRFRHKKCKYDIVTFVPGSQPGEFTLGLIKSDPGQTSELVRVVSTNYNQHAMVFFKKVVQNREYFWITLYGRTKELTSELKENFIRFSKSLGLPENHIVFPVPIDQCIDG
Description: as §1, §2, §3

[9] = target: T8, human lipocalin 2 (hNGAL) mutein SEQ ID NO: 49 (Homo sapiens, UniProt P80188, A60L/C107S/D65G/D97K/I61A/K154W/K66R/K93H/L123Q/L56E/L90R/N116L/Q48H/Q69M/R101V/S125P/S147V/S88E/W99D/Y120D/Y126E/Y72M); test: SPR (Biacore T200), mutein SEQ ID NO: 49; conditions: 25° C.
T8 construct: made in house; host or cells: E. coli
T8 sequence (P80188 21-198 with the stated changes): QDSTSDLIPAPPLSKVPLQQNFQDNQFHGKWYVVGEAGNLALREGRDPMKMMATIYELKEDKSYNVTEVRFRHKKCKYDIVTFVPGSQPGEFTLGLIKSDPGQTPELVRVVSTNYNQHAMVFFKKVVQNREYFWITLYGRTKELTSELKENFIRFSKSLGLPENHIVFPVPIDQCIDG
Description: as §1, §2, §3

[10] = target: T9, human lipocalin 2 (hNGAL) mutein SEQ ID NO: 48 (Homo sapiens, UniProt P80188, A60L/C107S/D67N/D97K/I61A/K154W/K93H/L123Q/L56E/L90R/N116L/Q48H/Q69M/R101V/S125P/S147V/S88E/T165P/W99D/Y120D/Y126E/Y72M); test: SPR (Biacore T200), mutein SEQ ID NO: 48; conditions: 25° C.
T9 construct: made in house; host or cells: E. coli
T9 sequence (P80188 21-198 with the stated changes): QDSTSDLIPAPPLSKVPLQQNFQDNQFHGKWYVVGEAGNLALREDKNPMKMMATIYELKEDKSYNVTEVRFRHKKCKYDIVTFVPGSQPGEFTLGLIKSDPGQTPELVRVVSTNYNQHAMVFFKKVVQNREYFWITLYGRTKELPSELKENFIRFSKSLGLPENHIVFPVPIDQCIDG
Description: as §1, §2, §3

[11] = target: T10, human lipocalin 2 (hNGAL) mutein SEQ ID NO: 46 (G-N-I-K, positions 95-98, deleted) (Homo sapiens, UniProt P80188, A60L/C107S/D97Q/DEL115-118/I61A/K154W/K93Y/L123Q/L56E/L90R/Q48H/Q69K/R101V/S147V/S88E/W99D/Y120E/Y126E/Y152F/Y72M); test: SPR (Biacore T200), mutein SEQ ID NO: 46; conditions: 25° C.
T10 construct: made in house; host or cells: E. coli
T10 sequence (P80188 with tags, fused parts or gaps with the stated changes): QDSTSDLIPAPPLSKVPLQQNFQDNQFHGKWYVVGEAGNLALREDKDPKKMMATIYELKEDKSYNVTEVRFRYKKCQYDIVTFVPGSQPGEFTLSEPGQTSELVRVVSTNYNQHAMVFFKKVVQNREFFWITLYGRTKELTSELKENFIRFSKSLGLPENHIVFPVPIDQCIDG
Description: as §1, §2, §3

Compound | absence of binding to negative control [1] | Kd [5] | koff [5] | kon [5] | Kd [6] | koff [6] | kon [6] | Kd [7] | koff [7] | kon [7] | Kd [8] | koff [8] | kon [8] | Kd [9] | koff [9] | kon [9] | Kd [10] | koff [10] | kon [10] | Kd [11] | further results
C[C@@H](O)[C@@H]1NC(=O)[C@H](CCCN(O)C=O)NC(=O)[C@@H](NC(=O)[C@H](CCCN(O)C=O)NC(=O)[C@@H](CO)NC(=O)[C@H](CCCNC(=N)N)NC(=O)[C@@H](CO)NC(=O)[C@@H]2CCN=C3C(NC(=O)CCC(=O)O)=Cc4cc(O)c(O)cc4N32)CCCCNC(=O)[C@H]([C@@H](C)O)NC1=O.[Fe+3] [Pvd I s (+Fe)] (Suc-[X4][dS]R[dS][X5]K[X5]TT; lactam 6-C) | absence of binding | – | – | – | – | – | – | – | – | – | – | – | – | – | – | – | – | – | – | – | –
C[C@@H](O)[C@@H](NC(=O)CNC(=O)[C@H](CCCN)NC(=O)[C@@H](CCCN([O-])C=O)NC(=O)[C@@H](CO)NC(=O)[C@@H]1CCNc2c(NC(=O)C(=O)CCC(=O)O)cc3cc([O-])c([O-])cc3[n+]21)C(=O)N[C@@H](CO)C(=O)N[C@H]1CCCN([O-])C1=O.[Fe+3] [Pvd II aKG (+Fe)] ({Butanoyl(2-oxo,4-COOH)}-[X1][dS][dOrn(N5-OH,N5-CHO)][Orn]G[d(aThr)]S-X2) | – | – | – | – | – | – | – | – | – | – | – | – | – | – | – | – | – | – | – | – | Kd [2]: 3.42 nM; koff [2]: 0.000149 s⁻¹; kon [2]: 43500 M⁻¹ s⁻¹; Kd [3]: 4.19 nM; koff [3]: 0.000416 s⁻¹; kon [3]: 99300 M⁻¹ s⁻¹; Kd [4]: 3.44 nM; koff [4]: 0.000374 s⁻¹; kon [4]: 109000 M⁻¹ s⁻¹
C[C@@H](O)[C@@H](NC(=O)CNC(=O)[C@H](CCCN)NC(=O)[C@@H](CCCN([O-])C=O)NC(=O)[C@@H](CO)NC(=O)[C@@H]1CCNc2c(NC(=O)CCC(=O)O)cc3cc([O-])c([O-])cc3[n+]21)C(=O)N[C@@H](CO)C(=O)N[C@H]1CCCN([O-])C1=O.[Fe+3] [Pvd II s (+Fe)] (Suc-[X1][dS][dOrn(N5-OH,N5-CHO)][Orn]G[d(aThr)]S-X2) | absence of binding | – | – | – | – | – | – | – | – | – | – | – | – | – | – | – | – | – | – | – | –
NC(=O)CC[C@H](NC(=O)[C@H](CCCN([O-])C=O)NC(=O)[C@@H]1CCN=C([C@@H](CO)NC(=O)[C@@H]2CCNc3c(NC(=O)C(=O)CCC(=O)O)cc4cc([O-])c([O-])cc4[n+]32)N1)C(=O)N[C@H](CCC(N)=O)C(=O)N[C@H](CCCN([O-])C=O)C(=O)NCC(=O)O.[Fe+3] [Pvd III aKG (+Fe)] | – | 5.64 nM | 0.000271 s⁻¹ | 48200 M⁻¹ s⁻¹ | 5.29 nM | 0.000303 s⁻¹ | 57300 M⁻¹ s⁻¹ | 8.97 nM | 0.000262 s⁻¹ | 29200 M⁻¹ s⁻¹ | 6.99 nM | 0.00033 s⁻¹ | 47300 M⁻¹ s⁻¹ | 1.53 nM | 4.29e-05 s⁻¹ | 28100 M⁻¹ s⁻¹ | 5.81 nM | 0.000158 s⁻¹ | 27200 M⁻¹ s⁻¹ | 3.15 nM | koff [11]: 0.000241 s⁻¹; kon [11]: 76700 M⁻¹ s⁻¹
NC(=O)CCC(=O)Nc1cc2cc([O-])c([O-])cc2[n+]2c1NCC[C@H]2C(=O)N[C@H](CO)C1=NCC[C@@H](C(=O)N[C@@H](CCCN([O-])C=O)C(=O)N[C@@H](CCC(N)=O)C(=O)N[C@H](CCC(N)=O)C(=O)N[C@H](CCCN([O-])C=O)C(=O)NCC(=O)O)N1.[Fe+3] [Pvd III sa (+Fe)] | – | 2.94 nM | 8.9e-05 s⁻¹ | 30300 M⁻¹ s⁻¹ | 3.04 nM | 0.000107 s⁻¹ | 35200 M⁻¹ s⁻¹ | 0.2 nM | 2.52e-05 s⁻¹ | 128000 M⁻¹ s⁻¹ | 3.03 nM | 9.91e-05 s⁻¹ | 32700 M⁻¹ s⁻¹ | 0.84 nM | 0.000112 s⁻¹ | 134000 M⁻¹ s⁻¹ | 0.64 nM | 9.51e-05 s⁻¹ | 148000 M⁻¹ s⁻¹ | 1.58 nM | koff [11]: 6.9e-05 s⁻¹; kon [11]: 43600 M⁻¹ s⁻¹

Reference: patent US10329334B2 (SANOFI, priority 2015, dated 2019)
